How the values were obtained:
[1] = test system: Aspergillus niger; assay: Fungicide effect by antibiogram type method; format: cell-based; settings: positive control
Excerpt: In order to evaluate any impact of the sugar esters used according to the invention on microorganisms, the fungicide effect was searched for by an antibiogram type method. The method consists of: • spreading a solution contaminated with the mold Aspergillus niger on the surface of a Petri dish containing glucose gel growth medium with chloramphenicol. • arrange 4 sterile antibiogram disks of 6 mm diameter per Petri dish. • inoculate with 3 drops (0.071 g) of solution to test or control solution per disk. The dishes are next placed in the incubator at 25° C. for 5 days. Measurement of the inhibitory diameter is carried out every day.

[2] = test system: maize seeds; assay: Germination of maize seeds, comparison of surfactants (Examples 13-19); format: in vivo; settings: maize seeds immersed 1 h in 0.75% solution
Experimental: The treatment of the maize seeds consists of immersing them 1 h in a solution comprising water alone (control batch) or in a solution composed of 98.25% water and 0.75% of a polyol derivative non-ionic surfactant (treated batch, Sub4). The seeds are next dried in a heating tunnel at 45° C. for one hour. Two batch repetitions of 16 seeds are deposited on Petri dishes containing a medium composed of 2% Agar Agar and 98% water. The Petri dishes are kept at ambient temperature and in darkness. Each day the number of seeds that have germinated (having a radicle) is counted. The treatment of the maize seeds consists of immersing them 1 h in a solution comprising water alone (control batch) or in a solution composed of 98.25% water and 0.75% of a polyol derivative non-ionic surfactant (treated batch, Sub1). The seeds are next dried in a heating tunnel at 45° C. for one hour. Two batch repetitions of 16 seeds are deposited on Petri dishes containing a medium composed of 2% Agar Agar and 98% water. The Petri dishes are kept at ambient temperature and in darkness. Each day the number of seeds that have germinated (having a radicle) is counted. The treatment of the maize seeds consists of immersing them 1 h in a solution comprising water alone (control batch) or in a solution composed of 98.25% water and 0.75% of a polyol derivative non-ionic surfactant (treated batch, Sub7). The seeds are next dried in a heating tunnel at 45° C. for one hour. Two batch repetitions of 16 seeds are deposited on Petri dishes containing a medium composed of 2% Agar Agar and 98% water. The Petri dishes are kept at ambient temperature and in darkness. Each day the number of seeds that have germinated (having a radicle) is counted. The treatment of the maize seeds consists of immersing them 1 h in a solution comprising water alone (control batch) or in a solution composed of 98.25% water and 0.75% of a polyol derivative non-ionic surfactant (treated batch, Sub2). The seeds are next dried in a heating tunnel at 45° C. for one hour. Two batch repetitions of 16 seeds are deposited on Petri dishes containing a medium composed of 2% Agar Agar and 98% water. The Petri dishes are kept at ambient temperature and in darkness. Each day the number of seeds that have germinated (having a radicle) is counted. The treatment of the maize seeds consists of immersing them 1 h in a solution comprising water alone (control batch) or in a solution composed of 98.25% water and 0.75% of a polyol derivative non-ionic surfactant (treated batch, Sub3). The seeds are next dried in a heating tunnel at 45° C. for one hour. Two batch repetitions of 16 seeds are deposited on Petri dishes containing a medium composed of 2% Agar Agar and 98% water. The treatment of the maize seeds consists of immersing them 1 h in a solution comprising water alone (control batch) or in a solution composed of 98.25% water and 0.75% of a polyol derivative non-ionic surfactant (treated batch, Sub6). The seeds are next dried in a heating tunnel at 45° C. for one hour. Two batch repetitions of 16 seeds are deposited on Petri dishes containing a medium composed of 2% Agar Agar and 98% water. The treatment of the maize seeds consists of immersing them 1 h in a solution comprising water alone (control batch) or in a solution composed of 98.25% water and 0.75% of a polyol derivative non-ionic surfactant (treated batch, Sub5). The seeds are next dried in a heating tunnel at 45° C. for one hour. Two batch repetitions of 16 seeds are deposited on Petri dishes containing a medium composed of 2% Agar Agar and 98% water. The Petri dishes are kept at ambient temperature and in darkness. Each day the number of seeds that have germinated (having a radicle) is counted.

## Fc1ccc([C@]2(Cn3cncn3)O[C@H]2c2ccccc2Cl)cc1 (racemic) [Epoxiconazole, reference compound]
[1]; D1
  Inhibitory diameter: 0 mm
[1]; D2
  Inhibitory diameter: 32 mm
[1]; D3
  Inhibitory diameter: 30 mm
[1]; D4
  Inhibitory diameter: 30 mm
[1]; D5
  Inhibitory diameter: 29 mm

## CCCCCCCCCCCC(=O)N(C)C[C@H](O)[C@@H](O)[C@H](O)[C@H](O)CO [N-lauroyl-N-methyl glucamide]
[2]; D1
  germination rate: 28%
[2]; D2
  germination rate: 65%

## CCCCCCCCCCO[C@@H]1O[C@H](CO)[C@@H](O)[C@H](O)[C@H]1O [decyl glucoside, Decyl glucoside]
[2]; D1
  germination rate: 19%
[2]; D2
  germination rate: 84%

## Glucose stearate
[2]; D1
  germination rate: 34%
[2]; D2
  germination rate: 78%

## Methylglucose dioleate
[2]; D1
  germination rate: 18%
[2]; D2
  germination rate: 65%

## Polyethoxylated sorbitan laurate
[2]; D1
  germination rate: 25%
[2]; D2
  germination rate: 78%

## Sorbitan laurate
[2]; D1
  germination rate: 31%
[2]; D2
  germination rate: 78%

## Sucrose palmitate
[2]; D1
  germination rate: 28%
[2]; D2
  germination rate: 78%

Source: patent publication US20200236933A1, “USE OF A NON-IONIC SURFACTANT WHICH IS A POLYOL DERIVATIVE AS A PLANT GROWTH STIMULATING AGENT OR AS AN ADJUVANT” (priority 2017, published 2020)
